# Test results from patent US20200400650A1, “METHODS FOR DECONTAMINATING CIRCUITS FOR PRODUCING GLUCOSE POLYMERS AND HYDROLYSATES OF GLUCOSE POLYMERS” (Roquette Freres, priority 2012, published 2020).
# “Also recorded” adds a separate entry of the source.
# What was measured:
# Raw-Blue™ line = test: Raw-Blue cell inflammatory response test (SEAP reporter activity); type: cell-based, mouse
# Description: The Raw-Blue™ line is a line of mouse macrophages transfected with a reporter gene producing a secreted form of alkaline phosphatase (SEAP: secreted embryonic alkaline phosphatase), the transcription of which is under the direct control of the inflammatory signaling pathways. The advantage of this line is that it naturally expresses virtually all the innate immunity receptors, including the TLR2, TLR4 and NOD2 receptors. Thus, these cells will respond to the majority of inflammatory contaminants, and the response will be monitored by measuring the enzymatic activity of the SEAP produced. Preferably, this line is used in the test at a cell density of approximately 0.5×10^6 cells/well. The bringing of the preparation of glucose polymers or of hydrolysates thereof into contact with the cells lasts approximately 16 to 24 h.
# The dose-response curves are produced with standard agonist molecules: LPS, PGN, LTA, zymosan and MDP. The Raw-Blue™ and HEK-Blue™ TLR2, TLR4, NOD2 and Null lines are incubated with increasing concentrations of agonists, and the cell response is measured by quantifying the SEAP activity (FIGS. 1-5).
# For the cell tests, the samples are diluted to 1/10 in the cell culture medium (final concentration: 3.2% (w/v)). […]
# hTLR2 receptor = target: T1, hTLR2 receptor (Homo sapiens, UniProt O60603); test: HEK-Blue hTLR2 cell response test (SEAP reporter activity); type: cell-based
# T1 construct: host or cells: HEK-Blue hTLR2 (HEK293-derived, SEAP reporter)
# T1 sequence (O60603 19-784 limits assumed): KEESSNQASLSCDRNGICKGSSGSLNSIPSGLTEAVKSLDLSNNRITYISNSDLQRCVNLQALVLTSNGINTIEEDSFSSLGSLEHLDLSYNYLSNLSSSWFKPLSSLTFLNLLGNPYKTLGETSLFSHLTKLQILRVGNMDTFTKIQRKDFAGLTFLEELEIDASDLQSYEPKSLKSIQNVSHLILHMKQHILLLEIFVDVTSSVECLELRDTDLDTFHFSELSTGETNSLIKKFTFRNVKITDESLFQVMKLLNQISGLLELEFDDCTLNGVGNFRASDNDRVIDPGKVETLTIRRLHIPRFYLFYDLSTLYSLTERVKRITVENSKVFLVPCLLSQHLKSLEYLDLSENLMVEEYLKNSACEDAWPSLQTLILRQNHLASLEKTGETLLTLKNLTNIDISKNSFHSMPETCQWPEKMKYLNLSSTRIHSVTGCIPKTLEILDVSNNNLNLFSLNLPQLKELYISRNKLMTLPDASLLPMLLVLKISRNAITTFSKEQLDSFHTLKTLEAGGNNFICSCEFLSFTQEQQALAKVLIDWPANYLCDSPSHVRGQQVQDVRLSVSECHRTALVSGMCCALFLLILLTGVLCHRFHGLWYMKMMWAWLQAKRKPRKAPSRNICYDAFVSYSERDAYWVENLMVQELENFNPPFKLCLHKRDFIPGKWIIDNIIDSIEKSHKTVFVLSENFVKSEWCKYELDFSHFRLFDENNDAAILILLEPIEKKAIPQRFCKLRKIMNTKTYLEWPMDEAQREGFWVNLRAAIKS
# Description: (§1) The cell lines, in particular HEK-Blue™ (InvivoGen), are lines modified by stable transfection with a vector encoding an innate immunity receptor, in particular human (h) receptors. They are also cotransfected with the reporter gene, in particular a reporter gene producing SEAP, the synthesis of which is under the direct control of the signaling pathway associated with the receptor overexpressed. Preferably, this reporter gene encodes a colored or fluorescent protein or a protein of which the activity can be measured with or without substrate. […] The use of these lines makes it possible to target certain families of molecules of microbial origin according to the receptor expressed. Preferably, cell lines expressing either hTLR2 or hTLR4 or hNOD2 are used. In addition, a control line which expresses no innate immunity receptor is also used.
# (§2) For the tests according to the present invention, four lines are preferably used: • HEK-Blue™ hTLR2 line: this line expressing the hTLR2 receptor responds specifically to TLR2 agonists (PGNs and lipopeptides especially). […]
# (§3) The dose-response curves are produced with standard agonist molecules: LPS, PGN, LTA, zymosan and MDP. The Raw-Blue™ and HEK-Blue™ TLR2, TLR4, NOD2 and Null lines are incubated with increasing concentrations of agonists, and the cell response is measured by quantifying the SEAP activity (FIGS. 1-5). […]
# hTLR4 receptor = target: T2, hTLR4 receptor (Homo sapiens, UniProt O00206+Q9Y6Y9); test: HEK-Blue hTLR4 cell response test (SEAP reporter activity); type: cell-based
# T2 construct: host or cells: HEK-Blue hTLR4 (HEK293-derived, SEAP reporter)
# T2 sequence (O00206 24-839): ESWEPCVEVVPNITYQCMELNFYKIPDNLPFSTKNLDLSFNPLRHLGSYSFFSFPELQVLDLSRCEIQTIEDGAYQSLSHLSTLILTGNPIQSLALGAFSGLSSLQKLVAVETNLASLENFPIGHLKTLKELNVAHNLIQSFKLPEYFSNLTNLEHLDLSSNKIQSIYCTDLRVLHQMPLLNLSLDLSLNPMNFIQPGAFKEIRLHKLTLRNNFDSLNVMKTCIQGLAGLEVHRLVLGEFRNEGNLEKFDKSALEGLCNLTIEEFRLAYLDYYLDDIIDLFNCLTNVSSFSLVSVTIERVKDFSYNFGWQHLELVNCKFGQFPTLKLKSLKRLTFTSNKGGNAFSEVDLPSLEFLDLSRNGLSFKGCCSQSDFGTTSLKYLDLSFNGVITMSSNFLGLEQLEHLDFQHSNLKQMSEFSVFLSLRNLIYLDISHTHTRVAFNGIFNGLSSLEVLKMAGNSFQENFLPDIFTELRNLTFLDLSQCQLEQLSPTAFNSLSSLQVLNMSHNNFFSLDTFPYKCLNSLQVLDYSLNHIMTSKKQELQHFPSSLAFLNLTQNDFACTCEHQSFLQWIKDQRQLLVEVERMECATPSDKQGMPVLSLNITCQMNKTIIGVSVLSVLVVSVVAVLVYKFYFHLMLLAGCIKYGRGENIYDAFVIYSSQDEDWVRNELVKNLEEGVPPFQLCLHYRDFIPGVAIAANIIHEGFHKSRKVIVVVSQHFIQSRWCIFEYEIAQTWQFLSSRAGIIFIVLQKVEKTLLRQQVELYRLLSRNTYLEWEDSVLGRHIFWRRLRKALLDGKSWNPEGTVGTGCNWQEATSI
# T2 sequence (Q9Y6Y9 17-160 limits assumed): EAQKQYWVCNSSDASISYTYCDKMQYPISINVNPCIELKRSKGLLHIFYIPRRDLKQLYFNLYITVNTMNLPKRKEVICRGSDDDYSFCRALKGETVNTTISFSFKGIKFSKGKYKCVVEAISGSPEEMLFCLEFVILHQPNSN
# Description: as §1, §2, §3
# hNOD2 receptor = target: T3, hNOD2 receptor (Homo sapiens, UniProt Q9HC29); test: HEK-Blue hNOD2 cell response test (SEAP reporter activity); type: cell-based; conditions: increasing concentrations of agonist
# T3 construct: host or cells: HEK-Blue hNOD2 (HEK293-derived, SEAP reporter)
# T3 sequence (Q9HC29 whole entry): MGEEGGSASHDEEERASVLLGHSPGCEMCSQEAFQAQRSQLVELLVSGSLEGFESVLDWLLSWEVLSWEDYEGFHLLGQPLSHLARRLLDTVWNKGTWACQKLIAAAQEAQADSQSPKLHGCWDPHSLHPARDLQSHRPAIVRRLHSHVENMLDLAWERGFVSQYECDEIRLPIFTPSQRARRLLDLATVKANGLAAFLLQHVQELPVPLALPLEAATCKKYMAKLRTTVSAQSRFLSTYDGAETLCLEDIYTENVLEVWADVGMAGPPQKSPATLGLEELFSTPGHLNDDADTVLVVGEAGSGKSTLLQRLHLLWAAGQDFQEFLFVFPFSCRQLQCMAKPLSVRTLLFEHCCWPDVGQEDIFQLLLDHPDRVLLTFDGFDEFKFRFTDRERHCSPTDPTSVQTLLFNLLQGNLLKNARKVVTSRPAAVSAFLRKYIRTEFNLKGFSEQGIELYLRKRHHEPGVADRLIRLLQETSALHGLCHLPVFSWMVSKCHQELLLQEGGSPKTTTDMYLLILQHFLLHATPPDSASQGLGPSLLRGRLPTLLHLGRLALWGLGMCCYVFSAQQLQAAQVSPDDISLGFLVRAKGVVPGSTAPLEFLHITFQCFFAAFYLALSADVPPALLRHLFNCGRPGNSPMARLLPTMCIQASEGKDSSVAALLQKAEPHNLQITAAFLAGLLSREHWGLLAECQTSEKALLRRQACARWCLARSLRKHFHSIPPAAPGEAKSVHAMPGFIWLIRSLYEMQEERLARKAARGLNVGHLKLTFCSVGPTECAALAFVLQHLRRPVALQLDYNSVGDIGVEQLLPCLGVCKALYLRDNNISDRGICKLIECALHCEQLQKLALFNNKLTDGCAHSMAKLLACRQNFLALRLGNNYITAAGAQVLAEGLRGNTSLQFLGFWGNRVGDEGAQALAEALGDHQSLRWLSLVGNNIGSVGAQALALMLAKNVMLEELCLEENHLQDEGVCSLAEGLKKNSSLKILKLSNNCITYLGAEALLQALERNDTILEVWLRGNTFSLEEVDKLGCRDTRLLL
# Description: as §1, §2, §3
# [1] = test system: Raw-Blue™ and HEK-Blue™ lines; test: Assessment by sample of the inflammatory activities from the combined cell tests; type: cell-based; conditions: overall assessment, FIG. 11
# Description: The objective of these tests is to determine the pro-inflammatory reactivity and the nature of the contaminants present in the glucose polymer matrices and the batch of glucose polymer hydrolysate.
# The analyses are carried out on: • Raw-Blue™ line: any contaminants with high reactivity for PGNs, • HEK-Blue™ hTLR2 line: high reactivity for PGNs, • HEK-Blue™ hTLR4 line: high reactivity for LPSs, • HEK-Blue™ hNOD2 line: MDP and PGN depolymerization products, • HEK-Blue™ Null2 line: control for absence of cell toxicity.
# [2] = background statement; cited from earlier work
# [3] = increasing concentrations of agonist, SEAP activity
molecule,measurement,setting,value
"CC(=O)N[C@H]1C(O)O[C@H](CO)[C@@H](O)[C@@H]1O[C@H](C)C(=O)N[C@@H](C)C(=O)N[C@H](CCC(=O)O)C(N)=O (mixture of isomers) [MDP, muramyl dipeptide]",Raw-Blue cell response to standard agonists,Raw-Blue™ line; [3],do not respond
same,HEK-Blue hTLR2 cell response to standard agonists,hTLR2 receptor; [3],no reactivity
same,HEK-Blue hTLR4 cell response to standard agonists,hTLR4 receptor; [3],no reactivity
same,HEK-Blue hNOD2 cell response to standard agonists,hNOD2 receptor,strong reactivity
"O.O=C[C@H](O)[C@@H](O)[C@H](O)[C@H](O)CO [LYCADEX®, dextrose monohydrate]",Raw cell response induced by matrix,"Raw-Blue™ line; nonfiltered sample, 3.2% (w/v)",trigger an inflammatory response
same,HEK-TLR2 cell response induced by matrix,"hTLR2 receptor; nonfiltered sample, 3.2% (w/v), monohydrate",do not trigger responses; also recorded: only barely or not at all active
same,HEK-TLR4 cell response induced by matrix,"hTLR4 receptor; nonfiltered sample, 3.2% (w/v)",do not trigger a significant response
same,Assessment of inflammatory activity by sample,[1],low-strength inflammatory activity
formyl-Met-Leu-Phe tripeptide [f-MLP],Induction of a cytokine response per se,[2],incapable of inducing a cytokine response per se
